Values joined by “and” are separate entries in the source; they are usually repeats but may differ in a detail not shown here. Identical values can stand only once. Inconclusive results and toxic doses are left out. No stated cut-off is given here; in the data, active means T/C of 150% or more; inactive means T/C below 125%.
Test system: L1210 leukemia ip in BDF1 mice, survival T/C
Experiment: NCI In Vivo Anticancer Drug Screen. Data for tumor model L1210 Leukemia (intraperitoneal) in B6D2F1 (BDF1) mice
Settings: endpoint: mean survival time, higher = longer survival
Outline: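 Mice bearing the transplanted tumor received compound or vehicle. Survival of the treated group was divided by that of the vehicle-treated control group to give the ratio.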

[1] = dose: 100.0 mg/kg/injection, schedule: Q01DX001 (ip), vehicle: saline
[2] = dose: 200.0 mg/kg/injection, schedule: Q01DX001 (ip), vehicle: saline
[3] = dose: 400.0 mg/kg/injection, schedule: Q01DX001 (ip), vehicle: saline
[4] = dose: 100.0 mg/kg/injection, schedule: Q01DX009 (ip), vehicle: Klucel (hydroxypropylcellulose) (HPC)
[5] = dose: 100.0 mg/kg/injection, schedule: Q04DX003 (ip), vehicle: Klucel (hydroxypropylcellulose) (HPC)
[6] = dose: 200.0 mg/kg/injection, schedule: Q01DX009 (ip), vehicle: Klucel (hydroxypropylcellulose) (HPC)
[7] = dose: 200.0 mg/kg/injection, schedule: Q04DX003 (ip), vehicle: Klucel (hydroxypropylcellulose) (HPC)
[8] = dose: 400.0 mg/kg/injection, schedule: Q01DX009 (ip), vehicle: Klucel (hydroxypropylcellulose) (HPC)
[9] = dose: 400.0 mg/kg/injection, schedule: Q04DX003 (ip), vehicle: Klucel (hydroxypropylcellulose) (HPC)
[10] = dose: 100.0 mg/kg/injection, schedule: Q01DX009 (ip), vehicle: saline with Tween-80
[11] = dose: 100.0 mg/kg/injection, schedule: Q04DX003 (ip), vehicle: saline with Tween-80
[12] = dose: 200.0 mg/kg/injection, schedule: Q04DX003 (ip), vehicle: saline with Tween-80
[13] = dose: 400.0 mg/kg/injection, schedule: Q04DX003 (ip), vehicle: saline with Tween-80
[14] = dose: 200.0 mg/kg/injection, schedule: Q01DX009 (ip), vehicle: saline with Tween-80
[15] = dose: 100.0 mg/kg/injection, schedule: Q01DX001 (ip), vehicle: carboxymethylcellulose (CMC)
[16] = dose: 100.0 mg/kg/injection, schedule: Q04DX003 (ip), vehicle: saline
[17] = dose: 200.0 mg/kg/injection, schedule: Q04DX003 (ip), vehicle: saline
[18] = dose: 400.0 mg/kg/injection, schedule: Q04DX003 (ip), vehicle: saline
[19] = dose: 50.0 mg/kg/injection, schedule: Q01DX009 (ip), vehicle: saline with Tween-80

Measured: T/C

Nc1nc(N)c(N=C/C=C\c2ccc([N+](=O)[O-])cc2)c(-c2ccccc2)n1
inactive: dose: 50.0 mg/kg/injection, schedule: Q01DX001 (ip), vehicle: saline 113 % of control | [1] 107 % of control | [2] 91 % of control | [3] 103 % of control

CC(=O)c1ccc(Br)c([N+](=O)[O-])c1
inactive: [1] 95 % of control | [2] 98 % of control | [3] 103 % of control

CC12C(=O)c3ccccc3C(=O)C1C1CCCCC1=C1CCCCC12 (centres undefined)
inactive: dose: 100.0 mg/kg/injection, schedule: Q04DX002 (ip), vehicle: Klucel (hydroxypropylcellulose) (HPC) 93 % of control | dose: 200.0 mg/kg/injection, schedule: Q04DX002 (ip), vehicle: Klucel (hydroxypropylcellulose) (HPC) 93 % of control | dose: 400.0 mg/kg/injection, schedule: Q04DX002 (ip), vehicle: Klucel (hydroxypropylcellulose) (HPC) 101 % of control

NC1CCCN(Cc2ccccc2)C1 (centres undefined)
inactive: dose: 75.0 mg/kg/injection, schedule: Q04DX003 (ip), vehicle: saline 104 % of control | dose: 150.0 mg/kg/injection, schedule: Q04DX003 (ip), vehicle: saline 100 % of control

Clc1ccc2c(NCCNC3CCCCC3)ccnc2c1
inactive: dose: 9.38 mg/kg/injection, schedule: Q01DX001 (ip), vehicle: saline 105 % of control | dose: 18.75 mg/kg/injection, schedule: Q01DX001 (ip), vehicle: saline 100 % of control | dose: 37.5 mg/kg/injection, schedule: Q01DX001 (ip), vehicle: saline 108 % of control

CCN(CCCl)c1ccc(N=Nc2cc(Cl)ccc2Cl)cc1
inactive: [4] 103 % of control | [5] 104 % of control | [6] 115 % of control | [7] 97 % of control | [8] 105 % of control | [9] 104 % of control

CCOc1ccc(-c2nnc(Nc3ccc(S(=O)(=O)N4CCCCC4)cc3)s2)cc1
inactive: [10] 87 % of control | dose: 100.0 mg/kg/injection, schedule: Q04DX002 (ip), vehicle: saline with Tween-80 96 % of control | dose: 200.0 mg/kg/injection, schedule: Q04DX002 (ip), vehicle: saline with Tween-80 93 % of control | dose: 400.0 mg/kg/injection, schedule: Q04DX002 (ip), vehicle: saline with Tween-80 90 % of control

O=C(O)CCC(=O)/C=C1/Nc2ccccc2C1=O
inactive: [11] 88 % of control | [12] 90 % of control | [13] 88 % of control

CC(COC(=O)c1ccccc1)(COC(=O)c1ccccc1)COC(=O)c1ccccc1
inactive: [4] 96 % of control | [5] 113 % of control | [6] 104 % of control | [7] 99 % of control | [8] 107 % of control | [9] 96 % of control

CC(C)Nc1nc(NC(C)C)nc(NC(C)C)n1
inactive: [5] 92 % of control | [7] 87 % of control | [9] 90 % of control

CC[N+]1(CC)N=C([O-])N(C)C1=O
inactive: [10] 101 % of control | [14] 101 % of control | dose: 400.0 mg/kg/injection, schedule: Q01DX009 (ip), vehicle: saline with Tween-80 103 % of control

O=C1c2ccccc2C(=O)c2c(O)c([N+](=O)[O-])cc([N+](=O)[O-])c21
inactive: [1] 98 % of control | [2] 104 % of control | [3] 100 % of control

CCCCn1cc(S(=O)(=O)Nc2ccccc2)c(=O)[nH]c1=O
inactive: dose: 37.5 mg/kg/injection, schedule: Q01DX001 (ip), vehicle: saline with Tween-80 104 % of control | dose: 75.0 mg/kg/injection, schedule: Q01DX001 (ip), vehicle: saline with Tween-80 98 % of control | dose: 150.0 mg/kg/injection, schedule: Q01DX001 (ip), vehicle: saline with Tween-80 98 % of control

Nc1cc(Br)cc2[nH]c(=O)c3cc(Br)ccc3c12
inactive: [15] 100 % of control | dose: 200.0 mg/kg/injection, schedule: Q01DX001 (ip), vehicle: carboxymethylcellulose (CMC) 100 % of control | dose: 400.0 mg/kg/injection, schedule: Q01DX001 (ip), vehicle: carboxymethylcellulose (CMC) 102 % of control

CC12c3ccccc3C(c3c1ccc1ccccc31)C1C(=O)OC(=O)C12 (centres undefined)
inactive: [5] 96 % of control | [7] 104 % of control | [9] 98 % of control

Nc1cc(Sc2ccc(Cl)cc2)nc(N)n1
inactive: dose: 100.0 mg/kg/injection, schedule: Q01DX001 (ip), vehicle: saline with Tween-80 100 % of control | dose: 200.0 mg/kg/injection, schedule: Q01DX001 (ip), vehicle: saline with Tween-80 100 % of control | dose: 400.0 mg/kg/injection, schedule: Q01DX001 (ip), vehicle: saline with Tween-80 100 % of control

Cc1ccccc1-n1nnc2ccccc2c1=O
inactive: [1] 95 % of control | [16] 95 % of control | [2] 92 % of control | [17] 115 % of control | [3] 89 % of control | [18] 88 % of control

S=P(NCCCCCNP(=S)(N1CC1)N1CC1)(N1CC1)N1CC1
inactive: [15] 91 % of control

CCC(=O)/C=C/C1C(C)=CCCC1(C)C (centres undefined)
inactive: [10] 86 % of control | [16] 100 % of control | [14] 90 % of control | [17] 102 % of control | [18] 100 % of control

CC(C)=CCC/C(C)=C\CCl
inactive: dose: 25.0 mg/kg/injection, schedule: Q01DX009 (ip), vehicle: saline with Tween-80 93 % of control | [19] 106 % of control | [10] 97 % of control and 101 % of control | [11] 104 % of control | [12] 93 % of control | [13] 90 % of control

NCCCCCc1ccccc1
inactive: dose: 50.0 mg/kg/injection, schedule: Q04DX003 (ip), vehicle: saline 109 % of control

O=C(CNC(=O)Nc1nccs1)N/N=C/c1ccc(Cl)cc1
inactive: [19] 106 % of control | [10] 89 % of control

O=C(CC(=O)CC(O)(C(F)(F)F)C(F)(F)F)CC(O)(C(F)(F)F)C(F)(F)F
inactive: dose: 2.5 mg/kg/injection, schedule: Q01DX009 (ip), vehicle: saline 97 % of control | dose: 5.0 mg/kg/injection, schedule: Q01DX009 (ip), vehicle: saline 95 % of control

NC(=O)C(CCO)n1ccc(N)nc1=O (centres undefined)
inactive: [1] 94 % of control | [2] 98 % of control | [3] 102 % of control

COc1ccc2c(c1)C(=O)CCC2(C)C
inactive: [19] 100 % of control | [10] 86 % of control | [14] 105 % of control

CN(C)c1ccc(C=NCCN=Cc2ccc(N(C)C)cc2)cc1
inactive: [11] 98 % of control | [12] 106 % of control | [13] 95 % of control

Cc1nc(-c2ccc(N=Cc3ccc(N(CCCl)CCCl)cc3)cc2)cs1
inactive: dose: 50.0 mg/kg/injection, schedule: Q01DX009 (ip), vehicle: saline 101 % of control | [1] 101 % of control | dose: 100.0 mg/kg/injection, schedule: Q01DX009 (ip), vehicle: saline 104 % of control | [2] 90 % of control | dose: 200.0 mg/kg/injection, schedule: Q01DX009 (ip), vehicle: saline 98 % of control | [3] 89 % of control | dose: 400.0 mg/kg/injection, schedule: Q01DX009 (ip), vehicle: saline 102 % of control

— PubChem BioAssay AID248 (DTP/NCI, 2004)
